Reference: PMC13316043, “Structural basis of NSD2 degradation via targeted recruitment of SCF-FBXO22” (Nature Communications, 2026)
Each block holds one compound with its values, some of them ahead of it.

Tests used:
[1] = molecular target: T1, *NSD2 PWWP1 ubiquitination by SCF^FBXO22 (Homo sapiens, UniProt O96028+Q8NEZ5); assay: Ubiquitination assay using purified components; assay type: biochemical; conditions: compound at 0.5 µM, fluorescent SDS-PAGE
T1 construct: fluorescently labeled NSD2-PWWP1 (*NSD2-PWWP1); the FIST domain of FBXO22 rather than full-length FBXO22 that is used in the ubiquitination; 6xHis (N, cleaved yes); GST (cleaved yes); made in house; host or cells: SKP1-FBXO22: Trichoplusia ni insect cells; NSD2 PWWP1 and NEDD8: E. coli BL21(DE3)-CodonPlus RIL
Method: Ubiquitination assays were performed by mixing 2 separate solutions. First, SKP1-FBXO22, fluorescently labeled NSD2-PWWP1 (*NSD2-PWWP1), and compounds, unless otherwise indicated, were pre-incubated for 15 min on ice. Second, UBA1, UBE2R2, UBE2D2 or UBE2L3 and ARIH1, NEDD8 ~ CUL1-RBX1, MgATP, and reaction buffer (20 mM HEPES pH 8, 200 mM NaCl, 0.5 mg/mL bovine serum albumin (BSA)) were combined on ice to generate a master mix. A standard volume of master mix was added to each reaction tube, and Ub was added to initiate the ubiquitination reaction containing 100µM Ub, 1µM SKP1-FBXO22, 0.5µM *NSD2 PWWP1, 0.5µM compound, 0.1µM UBA1, 1µM UBE2R2, 1µM UBE2D2 or 1µM UBE2L3, and 1µM ARIH1, 1µM NEDD8~CUL1-RBX1, and 5mM MgATP in reaction buffer. Ubiquitination assays comparing *NSD2 PWWP1 mutants were performed similarly, except that SKP1-FBXO22, *NSD2 PWWP1 mutants, and compounds were not incubated separately prior to the start of the reaction. The reactions proceeded at room temperature for 15 min until they were quenched by adding SDS Loading Buffer. The ubiquitinated *NSD2 PWWP1 was visualized by subjecting the reactions to SDS-PAGE and imaging using the Amersham Typhoon.

[2] = test system: NSD2 and other known FBXO22 substrates; conditions: prior work; cited from earlier work
[3] = molecular target: T2, NSD2 (long and short forms) (Homo sapiens, UniProt O96028); assay: Western blot of NSD2 in HEK293T cells; assay type: cell-based; conditions: 10 µM, 6 hrs, vs DMSO
T2 sequence (O96028 211-350 limits assumed): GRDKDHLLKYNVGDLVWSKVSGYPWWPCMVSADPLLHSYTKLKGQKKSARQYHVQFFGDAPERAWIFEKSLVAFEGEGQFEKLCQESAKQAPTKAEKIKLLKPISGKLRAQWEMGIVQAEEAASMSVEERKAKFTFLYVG
Method: (§1) HEK293T and U2OS were obtained from ATCC and cultured in high-glucose-containing Dulbecco’s Modified Eagle’s Medium (DMEM; Gibco; cat. #11995) supplemented with 10% fetal bovine serum (VWR) and 1% penicillin/streptomycin (Gibco). Cells were treated with either UNC10415667, UNC12149, UNC12567, hemin (Sigma; cat. #H9039), or DMSO control for the indicated times and analyzed by western blot using standard procedures. Briefly, cells were lysed on ice for 15 min in NETN lysis buffer (20 mM Tris pH 8.0, 100 mM NaCl, 0.5 mM EDTA, 0.5% NP40) supplemented with 10 µg/mL aprotinin, 10 µg/mL leupeptin, 10 µg/mL pepstatin A, 1 mM sodium orthovanadate, 1 mM sodium fluoride, and 1 mM AEBSF (4-[two aminoethyl] benzenesulfonyl fluoride). Cell lysates were centrifuged at 20,000×g in a benchtop microcentrifuge at 4 °C for 10 min. Protein concentration was determined by Bradford assay (Bio-Rad; cat. #5000006). Protein concentration was normalized using Laemmli buffer. Samples were heated for 5 min at 95°C in a dry water-bath. Samples were separated on TGX stain free gels (Bio-Rad) transferred to nitrocellulose membrane and blocked in 5% non-fat dry milk (Biorad; cat. #1706404) diluted in 1x TBS-T (137 mM NaCl, 2.7 mM KCl, 25 mM Tris pH 7.6, 1% Tween-20). Primary antibody incubations (Anti-NSD2 (Abcam; Cat# ab75359; Lot# 1093214-1; 1:1000 dilution), Anti-BACH1 (Fortis Life Sciences; Cat# A303-805A; Lot# 1; 1:1000 dilution), and Anti-GAPDH (Santa Cruz Biotechnology; Cat# sc-47724; Lot# C1023; 1:1000 dilution)) were performed overnight at 4 °C. Secondary antibodies (Peroxidase AffiniPure Goat Anti-Rabbit IgG (H + L) (Jackson Immuno; Cat# 111-035-003; 1:5000 dilution) and Peroxidase AffiniPure Goat Anti-Mouse IgG (H + L) (Jackson Immuno; Cat# 115-035-003; 1:5000 dilution)) were incubated for 1 h at room temperature. Blots were developed by chemiluminescence using Pierce ECL (Thermo Fisher Scientific; cat. #32106).

BACH1 = assay: Western blot of BACH1 in HEK293T cells; assay type: cell-based, human
Method: as §1

[4] = test system: FBXO22-NSD2 PWWP1 ternary complex; assay: Size-exclusion chromatography to monitor ternary complex formation; assay type: binding, human
Method: Formation of the SCF^FBXO22-UNC10088-NSD2 PWWP1 and SCF^FBXO22-UNC10415667-NSD2 PWWP1 ternary complexes was performed by incubating SKP1-FBXO22, CUL1-RBX1, NSD2 PWWP1, and UNC10088 or UNC10415667 at a 1:1:1:1 molar ratio for 4 h on ice. The SCF^FBXO22-UNC10088-NSD2 PWWP1-BACH1 BTB ternary complex was formed by incubating SKP1-FBXO22, CUL1-RBX1, NSD2 PWWP1, UNC10088, and BACH1 BTB at a 1:1:1:1:1.5 molar ratio for 1 h on ice. The incubated sample was loaded onto a Superdex 200 Increase SD200 column (Cytiva), equilibrated with 20 mM HEPES pH 8, 200 mM NaCl, 1 mM DTT, for size-exclusion chromatography, and fractions containing all subunits of the SCF^FBXO22-Degrader-NSD2 PWWP1 complex were pooled and concentrated. The SCF^FBXO22-UNC10088-NSD2 PWWP1, SCF^FBXO22-UNC10415667-NSD2 PWWP1, and SCF^FBXO22-UNC10088-NSD2 PWWP1-BACH1 BTB complexes were concentrated to 33 µM, 10.9 µM, and 4.1 µM, respectively, and flash frozen. […] In contrast, only the PWWP1 and BTB domains of NSD2 and BACH1, respectively, were used.
FBXO22 WT and variants were incubated on ice with NSD2 PWWP1 and either UNC10088 or UNC10415667 at 5 µM. After 1 h, the samples were centrifuged at 16,060 x g for 10 min at 4 °C. Each sample was examined for C326- and compound-dependent complex formation by comparing the SEC chromatograms and Coomassie-stained SDS-PAGE gels. […] These experiments were performed using a Superdex 200 Increase SD200 column (Cytiva) and 20 mM HEPES pH 8, 200 mM NaCl, 1 mM DTT.

[5] = molecular target: T3, NSD2 (U2OS NSD2-HiBiT cells) (Homo sapiens, UniProt O96028); assay: NSD2 HiBiT degradation assay; assay type: cell-based; conditions: U2OS NSD2-HiBit cells, 1 µM, 6 h
T3 construct: RNPs were introduced into U2OS cells by electroporation; endogenous in cells; host or cells: U2OS NSD2-HiBiT clone P112 (CRISPR knock-in)
T3 sequence (O96028 1-1365): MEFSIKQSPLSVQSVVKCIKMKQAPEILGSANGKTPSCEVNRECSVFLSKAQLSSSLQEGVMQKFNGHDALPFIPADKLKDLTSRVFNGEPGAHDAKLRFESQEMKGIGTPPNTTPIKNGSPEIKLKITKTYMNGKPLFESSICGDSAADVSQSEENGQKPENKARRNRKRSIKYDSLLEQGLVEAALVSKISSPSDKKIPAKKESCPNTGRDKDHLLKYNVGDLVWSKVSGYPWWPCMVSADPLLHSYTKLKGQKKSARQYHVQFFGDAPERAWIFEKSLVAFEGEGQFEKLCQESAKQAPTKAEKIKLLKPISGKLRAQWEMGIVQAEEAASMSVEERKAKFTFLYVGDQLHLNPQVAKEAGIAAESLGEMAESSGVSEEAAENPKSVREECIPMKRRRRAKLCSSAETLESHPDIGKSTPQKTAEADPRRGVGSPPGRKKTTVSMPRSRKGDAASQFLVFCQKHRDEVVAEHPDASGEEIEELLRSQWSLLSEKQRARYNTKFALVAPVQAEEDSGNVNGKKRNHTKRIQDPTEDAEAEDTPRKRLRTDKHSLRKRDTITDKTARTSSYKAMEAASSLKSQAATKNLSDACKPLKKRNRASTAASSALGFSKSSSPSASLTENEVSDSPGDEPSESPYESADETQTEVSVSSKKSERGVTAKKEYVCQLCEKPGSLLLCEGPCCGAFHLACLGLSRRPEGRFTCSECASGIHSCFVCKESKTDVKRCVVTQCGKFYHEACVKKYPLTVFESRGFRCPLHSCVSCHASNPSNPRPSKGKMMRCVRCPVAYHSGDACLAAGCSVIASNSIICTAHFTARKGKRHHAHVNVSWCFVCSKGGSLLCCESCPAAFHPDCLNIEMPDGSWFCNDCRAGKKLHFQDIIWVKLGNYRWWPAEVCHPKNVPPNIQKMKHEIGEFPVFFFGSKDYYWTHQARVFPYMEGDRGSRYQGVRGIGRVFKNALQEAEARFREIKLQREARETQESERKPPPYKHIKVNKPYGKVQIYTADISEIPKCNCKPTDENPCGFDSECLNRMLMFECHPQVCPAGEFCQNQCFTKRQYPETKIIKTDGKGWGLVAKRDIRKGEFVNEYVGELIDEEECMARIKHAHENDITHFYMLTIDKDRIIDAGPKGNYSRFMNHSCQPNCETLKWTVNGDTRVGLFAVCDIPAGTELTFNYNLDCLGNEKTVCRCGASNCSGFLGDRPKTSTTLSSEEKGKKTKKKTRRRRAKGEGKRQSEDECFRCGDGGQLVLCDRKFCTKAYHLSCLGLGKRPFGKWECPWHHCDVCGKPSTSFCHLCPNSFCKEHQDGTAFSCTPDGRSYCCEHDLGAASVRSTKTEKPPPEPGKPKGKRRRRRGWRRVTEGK
Excerpt: The NSD2 genomic sequence was obtained from the UCSC genome browser and used to design sgRNAs to introduce HiBiT tags at either the 5’ or 3’ ends of the gene. sgRNA were assembled into RNPs using TrueCut Cas9 Protein v2 (Invitrogen, Cat#A36497), an sgRNA crRNA:tracrRNA duplex (below; IDT) and ssODN (below; IDT). RNPs were introduced into U2OS cells by electroporation using a Neon XT electroporation system (1750 V, 10 ms, 3 pulses) in R-buffer, using Thermo Fisher Neon transfection kit (Cat# MPK1025K) and according to the manufacturer's protocol. After plating for recovery for four days, single cell clones limited dilution cloning. Single cell clones that grew out were identified as containing integrated HiBiT tags on NSD2 by performing HiBiT assays using HiBiT lytic assay (Promega: N3040) and read on a plate reader. Clones were further confirmed by PCR analysis.
To test compounds for NSD2 degradation, a compound plate was prepared by diluting compounds in DMSO into cell media in a 384-deep-well plate (Revvity). Then, 6 µL of the diluted compounds were transferred into the well of the 384-well assay plate (Corning). 24 µL of the NSD2 HiBiT U2OS P112 cells or parental U2OS cells (3000 cells/well) were added to each well to make a final volume of 30 µL with a 0.1% final DMSO concentration. For multiple time points, multiple assay plates were made and incubated in the incubator at 37 °C in 5% CO2 for 3/6/12/24/48 hrs. 10 min before the reading, the assay plate and the Nano-Glo HiBiT Lytic Detection System (Promega) were brought to room temperature. The HiBiT lytic reagent master mix was prepared according to the product instructions and added to the assay plate. The plate was then incubated on an orbital shaker for 5 min at room temperature, equilibrated for 10 min, and then read using the GloMax luminometer (Promega) for luminescence detection. Compound treatment was normalized to the DMSO control with the background subtraction using the parental U2OS cell line as the background control, plated alongside the HiBiT U2OS P112 cells. The data and graphs were then analyzed and generated using GraphPad Prism (v 10.4.1). DC50 and Dmax were calculated by fitting the data to a non-linear regression curve.

T1 sequence (Q8NEZ5 whole entry, one chain of several, the tested form may be a part): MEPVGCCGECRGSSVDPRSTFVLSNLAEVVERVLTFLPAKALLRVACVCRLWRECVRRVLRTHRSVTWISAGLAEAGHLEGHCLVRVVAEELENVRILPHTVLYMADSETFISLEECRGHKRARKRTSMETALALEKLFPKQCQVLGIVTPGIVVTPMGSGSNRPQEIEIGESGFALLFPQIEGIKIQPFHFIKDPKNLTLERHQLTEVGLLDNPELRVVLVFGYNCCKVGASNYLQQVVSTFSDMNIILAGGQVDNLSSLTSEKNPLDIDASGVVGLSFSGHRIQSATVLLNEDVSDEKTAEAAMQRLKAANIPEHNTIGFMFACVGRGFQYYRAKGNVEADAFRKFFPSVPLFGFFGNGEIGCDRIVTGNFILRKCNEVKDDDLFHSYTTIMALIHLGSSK

- SCF^FBXO22-dependent ubiquitination of *NSD2 PWWP1 [1]: no effect
Compound: NCCCCCC(=O)N1CCc2cc(NC(=O)c3ccc(CN(C(=O)c4ccc5c(c4)OCC(=O)N5)C4CC4)cc3)ccc2C1 [UNC8732]
- selectivity of degradation in global proteomics [2]: specifically degrades NSD2

- NSD2 levels by immunoblot [3]: unchanged
Compound: CC(C)N(Cc1ccc(C(=O)Nc2ccc3c(c2)CCN(C(=O)c2ccc(C=O)cc2)C3)cc1)C(=O)c1ccc2c(c1)OCC(=O)N2 [UNC12567]
- BACH1 levels by immunoblot (BACH1; 10 µM, 6 hrs): unchanged
- ternary complex formation between FBXO22 and NSD2 PWWP1 by SEC [4]: did not support ternary complex formation

Compound: O=Cc1ccc(CC(=O)N2CCc3cc(NC(=O)c4ccc(CN(C(=O)c5ccc6c(c5)OCC(=O)N6)C5CC5)cc4)ccc3C2)cc1 [UNC10415668]
- reduction of NSD2 levels [5]: more modest effect
- SCF^FBXO22-dependent ubiquitination of *NSD2 PWWP1 [1]: able to induce polyubiquitination

Compound: Hemin [reference compound]
- BACH1 degradation by immunoblot (BACH1; 20 µM Hemin): degradation was promoted
